Laboratory results published in patent publication US9393271B2, “GHRH agonists for islet cell transplantation and function and the treatment of diabetes” (UNIVERSITY OF MIAMI, priority 2012, dated 2016).
Non-standard residues stand in square brackets, D forms with d. Residues, ends and D or L forms follow the SMILES beside them. No end group written: not given here. ξ: configuration not given here. *: point of attachment. Desaminotyrosyl = O=C(CCc1ccc(O)cc1)*; NMeY = CN[C@@H](Cc1ccc(O)cc1)C(=O)O; Agmatine = N=C(N)NCCCCN*; Nle = CCCC[C@H](N)C(=O)O; Orn = NCCC[C@H](N)C(=O)O; Abu = CC[C@H](N)C(=O)O; Aoc = NCCCCCCCC(=O)O; Ava = NCCCCC(=O)O; ξA = CC(N)C(=O)O

Legend:
[1] = target: T1, GHRH receptor (human pituitary membrane homogenates) (Homo sapiens, UniProt Q02643); assay: GHRH receptor binding, ligand competition with 125I-labeled JV-1-42 (Table 7); design: Normal human pituitaries were purchased from the National Hormone and Peptide Program; tissue National Hormone and Peptide Program (A. F. Parlow, Harbor-UCLA Medical Center, Torrance, Calif.); host or cells: normal human pituitary, membrane fraction / homogenate; settings: JI-38 = 1
T1 sequence (Q02643 23-423): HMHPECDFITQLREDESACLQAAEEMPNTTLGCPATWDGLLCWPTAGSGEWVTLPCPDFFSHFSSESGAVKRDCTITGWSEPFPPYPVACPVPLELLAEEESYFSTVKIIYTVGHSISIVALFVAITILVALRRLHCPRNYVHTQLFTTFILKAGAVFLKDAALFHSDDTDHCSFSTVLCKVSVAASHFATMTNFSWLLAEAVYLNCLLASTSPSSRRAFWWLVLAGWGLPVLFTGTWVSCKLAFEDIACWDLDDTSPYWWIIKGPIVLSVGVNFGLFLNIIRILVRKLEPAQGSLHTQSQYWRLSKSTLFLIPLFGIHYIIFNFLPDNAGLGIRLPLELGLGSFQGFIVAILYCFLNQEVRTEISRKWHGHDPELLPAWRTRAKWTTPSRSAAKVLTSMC

[2] = system: GH level; assay: In vivo endocrine activity (GH release), subcutaneous administration; settings: rat; for GH releasing potency relative to JI-38 (=1): s.c. injection
Experimental: Subcutaneous Administration. Adult male rats were used and anesthetized with pentobarbital (6 mg/100 g, b.w.), by i.p. injection. […] Blood samples were taken from the jugular vein 5, 15 and/or 30 minutes after the injection. The blood samples were centrifuged, plasma was removed and the GH level was measured by ELISA. The results are summarized in terms of potency in Table 9.

Compound	Relative affinitiy (Binding potency) vs JI-38 [1]	further results
CCCC[C@H](NC(=O)[C@@H](NC(=O)[C@H](CC(=O)O)NC(=O)[C@H](CCC(N)=O)NC(=O)[C@H](CC(C)C)NC(=O)[C@H](CC(C)C)NC(=O)[C@H](CCCN)NC(=O)[C@H](CCCNC(=N)N)NC(=O)[C@H](C)NC(=O)[C@H](CO)NC(=O)[C@H](CC(C)C)NC(=O)[C@H](CCC(N)=O)NC(=O)[C@H](CC)NC(=O)[C@H](CC(C)C)NC(=O)[C@@H](NC(=O)[C@H](CCCN)NC(=O)[C@H](CCCNC(=N)N)NC(=O)[C@H](Cc1ccc(O)cc1)NC(=O)[C@H](CO)NC(=O)[C@H](CC(N)=O)NC(=O)[C@@H](NC(=O)[C@H](Cc1ccccc1)NC(=O)[C@@H](NC(=O)[C@H](C)NC(=O)[C@H](CC(=O)O)NC(=O)[C@@H](C)NC(=O)[C@H](Cc1ccc(O)cc1)NC)[C@@H](C)CC)[C@@H](C)O)C(C)C)[C@@H](C)CC)C(=O)N[C@@H](CC(=O)O)C(=O)N[C@@H](CCCNC(=N)N)C(=O)NC [Peptide P-27409, [N—Me-Tyr^1, D-Ala^2, Orn^12, Abu^15, Orn^21, Nle^27, Asp^28]hGHRH(1-29)NH—CH3] (H-[NMeY][dA]DAIFTNSYR[Orn]VL[Abu]QLSAR[Orn]LLQDI[Nle]DR-NHMe)	4.10	Stimulation of growth hormone levels after s.c. administration (comparison in words) ([2]; s.c.): stimulated greater growth hormone levels than hGHRH or JI-38
[N—Me-Tyr^1, Gln^8, Orn^12, Abu^15, Orn^21, Nle^27, Agm^29]hGHRH(1-29) ([NMeY]ADAIFTQSYR[Orn]VL[Abu]QLSAR[Orn]LLQDI[Nle]S[Agmatine]) [Peptide P-20373]	–	GH releasing potency relative to JI-38 (=1) ([2]; 15 min after): 0.23; GH releasing potency relative to JI-38 (=1) ([2]; 30 min after): 0.88
CCCC[C@H](NC(=O)[C@@H](NC(=O)[C@H](CC(=O)O)NC(=O)[C@H](CCC(N)=O)NC(=O)[C@H](CC(C)C)NC(=O)[C@H](CC(C)C)NC(=O)[C@H](CCCN)NC(=O)[C@H](CCCNC(=N)N)NC(=O)[C@H](C)NC(=O)[C@H](CO)NC(=O)[C@H](CC(C)C)NC(=O)[C@H](CCC(N)=O)NC(=O)[C@H](CC)NC(=O)[C@H](CC(C)C)NC(=O)[C@@H](NC(=O)[C@H](CCCN)NC(=O)[C@H](CCCNC(=N)N)NC(=O)[C@H](Cc1ccc(O)cc1)NC(=O)[C@H](CO)NC(=O)[C@H](CCC(N)=O)NC(=O)[C@@H](NC(=O)[C@H](Cc1ccccc1)NC(=O)[C@@H](NC(=O)[C@H](C)NC(=O)[C@H](CC(=O)O)NC(=O)[C@@H](C)NC(=O)[C@H](Cc1ccc(O)cc1)N(C)C(C)=O)[C@@H](C)CC)[C@@H](C)O)C(C)C)[C@@H](C)CC)C(=O)N[C@@H](CC(=O)O)C(=O)NCCCCNC(=N)N [Peptide P-20351, [Ac—N—Me-Tyr^1, D-Ala^2, Gln^8, Orn^12, Abu^15, Orn^21, Nle^27, Asp^28, Agm^29]hGHRH(1-29)] (Ac-[NMeY][dA]DAIFTQSYR[Orn]VL[Abu]QLSAR[Orn]LLQDI[Nle]D-Agmatine)	1.26	–
CCCC[C@H](NC(=O)[C@@H](NC(=O)[C@H](CC(=O)O)NC(=O)[C@H](CCC(N)=O)NC(=O)[C@H](CC(C)C)NC(=O)[C@H](CC(C)C)NC(=O)[C@H](CCCN)NC(=O)[C@H](CCCNC(=N)N)NC(=O)[C@H](C)NC(=O)[C@H](CO)NC(=O)[C@H](CC(C)C)NC(=O)[C@H](CCC(N)=O)NC(=O)[C@H](CC)NC(=O)[C@H](CC(C)C)NC(=O)[C@@H](NC(=O)[C@H](CCCN)NC(=O)[C@H](CCCNC(=N)N)NC(=O)[C@H](Cc1ccc(O)cc1)NC(=O)[C@H](CO)NC(=O)[C@H](CC(N)=O)NC(=O)[C@@H](NC(=O)[C@H](Cc1ccccc1)NC(=O)[C@@H](NC(=O)[C@H](C)NC(=O)[C@H](CC(=O)O)NC(=O)[C@@H](C)NC(=O)CCc1ccc(O)cc1)[C@@H](C)CC)[C@@H](C)O)C(C)C)[C@@H](C)CC)C(=O)N[C@@H](CC(=O)O)C(=O)N[C@@H](CCCNC(=N)N)C(=O)NCCCCCCCC(N)=O [Peptide P-21300, [Dat^1, D-Ala^2, Orn^12, Abu^15, Orn^21, Nle^27, Asp^28, Amc^30]hGHRH(1-30)NH2] (Desaminotyrosyl-[dA]DAIFTNSYR[Orn]VL[Abu]QLSAR[Orn]LLQDI[Nle]DR[Aoc]-NH2)	1.20	–
CCCC[C@H](NC(=O)[C@@H](NC(=O)[C@H](CC(=O)O)NC(=O)[C@H](CCC(N)=O)NC(=O)[C@H](CC(C)C)NC(=O)[C@H](CC(C)C)NC(=O)[C@H](CCCN)NC(=O)[C@H](CCCNC(=N)N)NC(=O)[C@H](C)NC(=O)[C@H](CO)NC(=O)[C@H](CC(C)C)NC(=O)[C@H](CCC(N)=O)NC(=O)[C@H](CC)NC(=O)[C@H](CC(C)C)NC(=O)[C@@H](NC(=O)[C@H](CCCN)NC(=O)[C@H](CCCNC(=N)N)NC(=O)[C@H](Cc1ccc(O)cc1)NC(=O)[C@H](CO)NC(=O)[C@H](CC(N)=O)NC(=O)[C@@H](NC(=O)[C@H](Cc1ccccc1)NC(=O)[C@@H](NC(=O)[C@H](C)NC(=O)[C@H](CC(=O)O)NC(=O)[C@H](C)NC(=O)[C@H](Cc1ccc(O)cc1)NC)[C@@H](C)CC)[C@@H](C)O)C(C)C)[C@@H](C)CC)C(=O)N[C@@H](CC(=O)O)C(=O)N[C@@H](CCCNC(=N)N)C(=O)NCCCCCCCC(N)=O [Peptide P-21301, [N—Me-Tyr^1, Orn^12, Abu^15, Orn^21, Nle^27, Asp^28, Amc^30]hGHRH(1-30)NH2] (H-[NMeY]ADAIFTNSYR[Orn]VL[Abu]QLSAR[Orn]LLQDI[Nle]DR[Aoc]-NH2)	1.45	–

Second part, led by results:

Relative affinitiy (Binding potency) vs JI-38 [1]	Compound	further results
1.78	CCCC[C@H](NC(=O)[C@@H](NC(=O)[C@H](CC(=O)O)NC(=O)[C@H](CCC(N)=O)NC(=O)[C@H](CC(C)C)NC(=O)[C@H](CC(C)C)NC(=O)[C@H](CCCN)NC(=O)[C@H](Cc1c[nH]cn1)NC(=O)[C@H](C)NC(=O)[C@H](CO)NC(=O)[C@H](CC(C)C)NC(=O)[C@H](CCC(N)=O)NC(=O)[C@H](CC)NC(=O)[C@H](CC(C)C)NC(=O)[C@@H](NC(=O)[C@H](CCCN)NC(=O)[C@H](Cc1c[nH]cn1)NC(=O)[C@H](Cc1ccc(O)cc1)NC(=O)[C@H](CO)NC(=O)[C@H](CCC(N)=O)NC(=O)[C@@H](NC(=O)[C@H](Cc1ccccc1)NC(=O)[C@@H](NC(=O)[C@H](C)NC(=O)[C@H](CC(=O)O)NC(=O)C(C)NC(=O)CCc1ccc(O)cc1)[C@@H](C)CC)[C@@H](C)O)C(C)C)[C@@H](C)CC)C(=O)N[C@@H](CC(=O)O)C(=O)N[C@@H](CCCNC(=N)N)C(=O)NC (stereo partly shown) [Peptide P-27413, [Dat^1, Gln^8, His^11, Orn^12, Abu^15, His^20, Orn^21, Nle^27, Asp^28]hGHRH(1-29)NH—CH3] (Desaminotyrosyl-[ξA]DAIFTQSYH[Orn]VL[Abu]QLSAH[Orn]LLQDI[Nle]DR-NHMe)	–
2.18	CCCC[C@H](NC(=O)[C@@H](NC(=O)[C@H](CC(=O)O)NC(=O)[C@H](CCC(N)=O)NC(=O)[C@H](CC(C)C)NC(=O)[C@H](CC(C)C)NC(=O)[C@H](CCCN)NC(=O)[C@H](CCCNC(=N)N)NC(=O)[C@H](C)NC(=O)[C@H](CO)NC(=O)[C@H](CC(C)C)NC(=O)[C@H](CCC(N)=O)NC(=O)[C@H](CC)NC(=O)[C@H](CC(C)C)NC(=O)[C@@H](NC(=O)[C@H](CCCN)NC(=O)[C@H](CCCNC(=N)N)NC(=O)[C@H](Cc1ccc(O)cc1)NC(=O)[C@H](CO)NC(=O)[C@H](CCC(N)=O)NC(=O)[C@@H](NC(=O)[C@H](Cc1ccccc1)NC(=O)[C@@H](NC(=O)[C@H](C)NC(=O)[C@H](CC(=O)O)NC(=O)[C@H](C)NC(=O)CCc1ccc(O)cc1)[C@@H](C)CC)[C@@H](C)O)C(C)C)[C@@H](C)CC)C(=O)N[C@@H](CC(=O)O)C(=O)N[C@@H](CCCNC(=N)N)C(=O)NCCCCC(N)=O [Peptide P-22327, [Dat^1, Gln^8, Orn^12, Abu^15, Orn^21, Nle^27, Asp^28, Apa^30]hGHRH(1-30)NH2] (Desaminotyrosyl-ADAIFTQSYR[Orn]VL[Abu]QLSAR[Orn]LLQDI[Nle]DR[Ava]-NH2)	–
2.32	CCCC[C@H](NC(=O)[C@@H](NC(=O)[C@H](CC(=O)O)NC(=O)[C@H](CCC(N)=O)NC(=O)[C@H](CC(C)C)NC(=O)[C@H](CC(C)C)NC(=O)[C@H](CCCN)NC(=O)[C@H](CCCNC(=N)N)NC(=O)[C@H](C)NC(=O)[C@H](CO)NC(=O)[C@H](CC(C)C)NC(=O)[C@H](CCC(N)=O)NC(=O)[C@H](CC)NC(=O)[C@H](CC(C)C)NC(=O)[C@@H](NC(=O)[C@H](CCCN)NC(=O)[C@H](CCCNC(=N)N)NC(=O)[C@H](Cc1ccc(O)cc1)NC(=O)[C@H](CO)NC(=O)[C@H](CC(N)=O)NC(=O)[C@@H](NC(=O)[C@H](Cc1ccccc1)NC(=O)[C@@H](NC(=O)[C@H](C)NC(=O)[C@H](CC(=O)O)NC(=O)[C@@H](C)NC(=O)[C@H](Cc1ccc(O)cc1)NC)[C@@H](C)CC)[C@@H](C)O)C(C)C)[C@@H](C)CC)C(=O)N[C@@H](CC(=O)O)C(=O)N[C@@H](CCCNC(=N)N)C(=O)NCCCCCCCC(N)=O [Peptide P-21303, [N—Me-Tyr^1, D-Ala^2, Orn^12, Abu^15, Orn^21, Nle^27, Asp^28, Amc^30]hGHRH(1-30)NH2] (H-[NMeY][dA]DAIFTNSYR[Orn]VL[Abu]QLSAR[Orn]LLQDI[Nle]DR[Aoc]-NH2)	–
